Assay results: paper PMC11750672, “The in vivo metabolic pathway of Deg-AZM and in vitro investigations into the contribution of drug metabolizing enzymes and drug transporters in the drug interactions of Deg-AZM, a clinical-stage new transgelin agonist” (Frontiers in Pharmacology, 2025)

Assays:
[1] = Bidirectional transport in Caco-2 cell monolayer; format: in vitro ADME, human; conditions: human, Caco-2, without quinidine
Experimental: (§1) The human colon adenocarcinoma Caco-2 cell line was provided by Institute of Basic Medicine, Chinese Academy of Medical Sciences (Beijing, China). Caco-2 cells were cultured in a high sugar DMEM medium containing 10% (v/v) fetal bovine serum at 37°C and 5% CO2 incubator. Caco-2 cells (2.5 ×10^5/mL) was inoculated into Transwell polycarbonate membrane 12 well plate. The culture medium was changed every 2 days for the first 14 days, and then every day. After 21 consecutive days, fully differentiated cell monolayers were obtained for drug transport assays.
(§2) Transepithelial electrical resistance (TEER) was used to indicate monolayer integrity. The electrode of the Millcell ERS-2 voltammeter was placed in HBSS solution for 20 min to pre-balance. At the same time, the culture medium was removed from the Transwell culture plate, 0.5 mL of pre-heated HBSS solution was added into the Apical (AP) of transwell, 1.5 mL of pre-heated HBSS solution was added into the Basolateral (BL) of transwell. After that, the transwell was balanced at 37°C for 20 min and then replaced the HBSS solution with the pre-heated HBSS solution, the TEER value was measured finally. Caco-2 cell monolayers with TEER >350 Ω cm^2 which means that the cells have formed a tight monolayer, were used for the experiment. The TEER value was calculated according to the following formula: TEER=TEERT ‐ TEERc×A where TEERT represented the TEER value (Ω) of the measured Transwell chamber with Caco-2 cells, TEERC was the TEER value (Ω) of the transwell chamber in the control group, and A was the membrane area of the transwell cavity (1.12 cm^2 in this experiment).
(§3) In order to evaluate the usability of the Transwell model research, [^3H] Propranolol (0.5 μCi/mL) and [^14C] PEG4000 (1 μCi/mL) served as high-permeability and impermeability controls to verify the uptake direction on Caco-2 cell monolayer, respectively. Rhodamine 123 was used as a positive control for efflux mechanism in bidirectional transport assay on Caco-2 cell monolayer.
(§4) The transmembrane permeability of Deg-AZM (2, 10 or 50 µM) and the potential to inhibit P-gp by Deg-AZM (2, 10 or 50 µM) were evaluated using Caco-2 cell monolayer both apical-to-basolateral (A-B) and basolateral-to-apical (B-A) directions at 37°C for 1 h, the experiments were conducted using quinidine (50 μM) as the inhibitor for P-gp. At the end of incubation, receiver and donor samples were both diluted by assay buffer and analyzed by LC-MS/MS.

[2] = test system: Caco-2 cell monolayer; assay: Bidirectional transport in Caco-2 cell monolayer; format: in vitro ADME, human; conditions: 2, 10 and 50 μM, intake direction
Experimental: as §1, §2, §3, §4

[3] = biological target: T1, CYP2C9 (Homo sapiens, UniProt P11712); assay: HLM phenotyping assay with CYP2C9 inhibitor sulfaphenazole; format: in vitro ADME; conditions: 1 μM, HLM 0.5 mg/mL, NADPH, 90 min, with 10 µM sulfaphenazole
T1 construct: from tissue; host or cells: human liver microsomes
T1 sequence (P11712 whole entry): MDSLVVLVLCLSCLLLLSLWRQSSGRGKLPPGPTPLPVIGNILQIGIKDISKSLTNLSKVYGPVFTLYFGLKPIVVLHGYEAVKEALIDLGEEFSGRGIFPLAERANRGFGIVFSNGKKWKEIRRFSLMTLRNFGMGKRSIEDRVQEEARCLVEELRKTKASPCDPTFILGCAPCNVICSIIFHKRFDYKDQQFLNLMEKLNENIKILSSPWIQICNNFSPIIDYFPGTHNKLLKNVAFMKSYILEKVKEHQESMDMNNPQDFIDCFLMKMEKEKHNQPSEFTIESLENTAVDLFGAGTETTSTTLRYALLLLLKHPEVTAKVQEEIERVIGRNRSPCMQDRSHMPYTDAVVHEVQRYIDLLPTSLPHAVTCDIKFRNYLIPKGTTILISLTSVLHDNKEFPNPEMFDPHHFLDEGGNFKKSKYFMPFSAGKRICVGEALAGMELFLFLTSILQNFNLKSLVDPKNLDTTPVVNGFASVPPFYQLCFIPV
Experimental: (§5) Deg-AZM (1 μM) was treated with pooled HLM (0.5 mg/mL) and NADPH (1 mM) for 90 min with or without seven specific inhibitors (10 µM furafylline for CYP1A2, 10 µM ticlopidine for CYP2B6, 5 µM montelukast for CYP2C8, 10 µM sulfaphenazole for CYP2C9, 10 µM ticlopidine for CYP2C19, 2.5 µM quinidine for CYP2D6, 1 µM ketoconazole for CYP3A). Isoform-selective probe substrates, 10 µM phenacetin for CYP1A2, 20 µM bupropion for CYP2B6, 2 µM amodiaquine for CYP2C8, 5 µM diclofenac for CYP2C9, 20 µM S-mephenytoin for CYP2C19, 5 µM bufuralol for CYP2D6, 2 µM midazolam for CYP3A4, were used as positive controls.

[4] = test system: CYP2B6; assay: CYP induction (mRNA, qPCR) in human hepatocytes; conditions: for CYP2B6 induction, % of PC: PC phenobarbital 1 mM
From the text: After culture and complete induction, total mRNA was extracted by TRNzol RNA Extraction Kit (purchased from Tiangen Biochemical Technology Co., Ltd., Beijing). The RNA was reverse transcribed into cDNA according to the instructions of the Transcriptor First Strand cDNA Synthesis Kit (purchased from Roche, Switzerland). Using reverse transcribed cDNA as a template, amplifying the internal reference genes of β-Actin of the sample and target genes of CYP1A2, CYP2B6, and CYP3A4 respectively to compare the expression differences.

[5] = test system: pooled HLM; assay: HLM phenotyping assay, control group and positive control systems; format: in vitro ADME, human; conditions: 1 μM, HLM 0.5 mg/mL, NADPH, 90 min, control group without inhibitors
Experimental: as §5

[6] = test system: inactivated monomeric enzyme; assay: Recombinant CYPs phenotyping assay, inactivated enzyme control; format: in vitro ADME, human; conditions: control group with inactivated monomeric enzyme, 1.5 h
Experimental: Deg-AZM (1 μM) was treated with pooled NADPH (1 mM) and recombinant CYPs (rCYP1A2, rCYP2B6, rCYP2C8, rCYP2C9, rCYP2C19, rCYP2D6, and rCYP3A4, purchased from Research Institute for Liver Diseases Co. Ltd., Shanghai) at 25 pmol/mL for 90 min. The isoform-selective probe substrates served as positive controls (same as the positive controls in HLM phenotyping assays).

[7] = test system: human liver microsomes; design: method as in Gu et al., 2024; conditions: ref Gu et al., 2024; cited from earlier work

Papp A→B at 1 h, 2 μM ([1]; 2 μM, 37°C 1 h, n = 3): 0.326 ± 0.0481 ×10⁻⁶ cm/s
Papp B→A at 1 h, 2 μM ([1]; 2 μM, 37°C 1 h, n = 3): 5.27 ± 0.771 ×10⁻⁶ cm/s
efflux ratio at 1 h, 2 μM ([1]; 2 μM, read-out: ER): 16.2
Papp A→B at 1 h, 10 μM ([1]; 10 μM, 37°C 1 h, n = 3): 0.302 ± 0.0416 ×10⁻⁶ cm/s
Papp B→A at 1 h, 10 μM ([1]; 10 μM, 37°C 1 h, n = 3): 3.7 ± 0.485 ×10⁻⁶ cm/s
efflux ratio at 1 h, 10 μM ([1]; 10 μM, read-out: ER): 12.2
Papp A→B at 1 h, 50 μM ([1]; 50 μM, 37°C 1 h, n = 3): 0.316 ± 0.0201 ×10⁻⁶ cm/s
Papp B→A at 1 h, 50 μM ([1]; 50 μM, 37°C 1 h, n = 3): 3.16 ± 0.401 ×10⁻⁶ cm/s
efflux ratio at 1 h, 50 μM ([1]; 50 μM, read-out: ER): 10
Deg-AZM remaining [3]: 67.5%
CYP2B6 induction, % of PC ([4]; 5 μM, batch HUB): −0.466%
CYP2B6 induction, % of PC ([4]; 5 μM, batch LHuf 17905B): 6.61%
CYP2B6 induction, % of PC ([4]; 5 μM, batch MWB): 4.39%
CYP2B6 mRNA induction, times of control group ([4]; 5 μM, hepatocyte batch HUB): 0.942
CYP2B6 mRNA induction, times of control group ([4]; 5 μM, hepatocyte batch LHuf 17905B): 1.61
CYP2B6 mRNA induction, times of control group ([4]; 5 μM, hepatocyte batch MWB): 1.60
CYP2B6 induction, % of PC ([4]; 25 μM, batch HUB): 0.0278%
CYP2B6 induction, % of PC ([4]; 25 μM, batch LHuf 17905B): 5.00%
CYP2B6 induction, % of PC ([4]; 25 μM, batch MWB): 6.09%
CYP2B6 mRNA induction, times of control group ([4]; 25 μM, hepatocyte batch HUB): 1.00
CYP2B6 mRNA induction, times of control group ([4]; 25 μM, hepatocyte batch LHuf 17905B): 1.46
CYP2B6 mRNA induction, times of control group ([4]; 25 μM, hepatocyte batch MWB): 1.83
CYP2B6 induction, % of PC ([4]; 100 μM, batch HUB): 2.97%
CYP2B6 induction, % of PC ([4]; 100 μM, batch LHuf 17905B): 19.8%
CYP2B6 induction, % of PC ([4]; 100 μM, batch MWB): 24.3%
CYP2B6 mRNA induction, times of control group ([4]; 100 μM, hepatocyte batch HUB): 1.37
CYP2B6 mRNA induction, times of control group ([4]; 100 μM, hepatocyte batch LHuf 17905B): 2.84
CYP2B6 mRNA induction, times of control group ([4]; 100 μM, hepatocyte batch MWB): 4.33
Induction effect on CYP2B6 (conclusion) ([4]; 5, 25, and 100 µM, three batches of human hepatocytes): has an induction effect
Deg-AZM remaining [5]: 45.7%
Residual proportion of Deg-AZM [6]: 107%
SMILES: CCC1OC(=O)C(C)C(O)C(C)C(O)C(C)(O)CC(C)CN(C)C(C)C(O)C1(C)O (stereo not drawn) [Deg-AZM, Deglycosylated azithromycin]
Permeability classification [2]: low permeability drug with poor transmembrane ability
T1/2 [7]: 46.5 min
